Columns and labels:
[1] = tested on: Streptococcus faecium 10541; conditions: Streptococcus faecium 10541, Gram Positive; cited from earlier work
[2] = tested on: Pseudomonas aeruginosa 9027; conditions: Pseudomonas aeruginosa 9027, Gram Negative; cited from earlier work
[3] = tested on: Staphylococcus epidermidis 12228; conditions: Staphylococcus epidermidis 12228, Gram Positive; cited from earlier work
[4] = tested on: Staphylococcus aureus 27543; conditions: Staphylococcus aureus 27543, Gram Positive; cited from earlier work
[5] = tested on: Streptococcus-pyogenes 7958; conditions: Streptococcus-pyogenes 7958, Gram Positive; cited from earlier work
[6] = tested on: Micrococcus lutena 9341; conditions: Micrococcus lutena 9341, Gram Positive; cited from earlier work
[7] = tested on: all Gram Negative bacteria listed in Table 1; conditions: same reasoning applied to PA marker
From the text: (§1) An independent medical researcher in Israel obtained a very virulent strain of Staph from a patient at the Shaarei Tzedek Hospital in Jerusalem. […] This Staph strain was utilized as the Staph source, and the otherwise exact test protocol described above was repeated. […] Only one test swatch was used for the Staph evaluation.

[8] = tested on: all Gram positive bacteria listed in Table 1; conditions: extrapolated from virulent Staph result
From the text: as §1

[9] = tested on: Enterobacter cloacae 13047; conditions: Enterobacter cloacae 13047, Gram Negative; cited from earlier work
[10] = tested on: very virulent strain of Staph; type: cell-based; conditions: calculated from inhibition zone being inversely proportional to MIC
From the text: as §1

[11] = tested on: Bacillus subtilis 6633; conditions: Bacillus subtilis 6633, Gram Positive; cited from earlier work
[12] = tested on: Saccharomyces cerevisiae 2601; conditions: Saccharomyces cerevisiae 2601, Yeast and Mold; cited from earlier work
[13] = tested on: Escherichia coll 10231; conditions: Escherichia coll 10231, Gram Negative; cited from earlier work
[14] = tested on: Streptococcus agalactiae 27956; conditions: Streptococcus agalactiae 27956, Gram Positive; cited from earlier work
[15] = tested on: Staphylococcus aureus 0927; conditions: Staphylococcus aureus 0927, Gram Positive; cited from earlier work
[16] = tested on: Candida albicans 16404; conditions: Candida albicans 16404, Yeast and Mold; cited from earlier work
[17] = tested on: Escherichia coll 25254; conditions: Escherichia coll 25254, Gram Negative; cited from earlier work

For [Ag+].[Ag+].[Ag+].[Ag+].[O-2].[O-2].[O-2].[O-2] [Ag4O4, tetrasilver tetroxide], the “MIC (Minimal Inhibitory Concentration)” value [1] is given as 5.00 PPM, the “MIC (Minimal Inhibitory Concentration)” value [2] is given as 1.25-2.50 PPM and the “MIC (Minimal Inhibitory Concentration)” value [3] is given as 0.625 PPM. The “MIC (Minimal Inhibitory Concentration)” value [4] was 5.00 PPM, the “MIC (Minimal Inhibitory Concentration)” value [5] was 2.50 PPM and the “MIC (Minimal Inhibitory Concentration)” value [6] was 1.25-2.50 PPM. The “inhibition of all Gram Negative bacteria listed in Table 1” value [7] was “inhibition”, the “inhibition of all listed Gram positive bacteria” value [8] was “capable of inhibiting” and the “MIC (Minimal Inhibitory Concentration)” value [9] was 2.50 PPM. For the same compound, the “MIC for the virulent Staph strain” value [10] was 40.5-61.0 PPM, the “MIC (Minimal Inhibitory Concentration)” value [11] was 5.00 PPM and the “MIC (Minimal Inhibitory Concentration)” value [12] was 1.25 PPM. The “MIC (Minimal Inhibitory Concentration)” value [13] was 2.50 PPM, the “MIC (Minimal Inhibitory Concentration)” value [14] was 1.25-5.00 PPM and the “MIC (Minimal Inhibitory Concentration)” value [15] was 2.50-5.00 PPM. For the same compound, the “MIC (Minimal Inhibitory Concentration)” value [16] was 2.50-5.0 PPM and the “MIC (Minimal Inhibitory Concentration)” value [17] was 2.50 PPM.

From patent publication US6436420B1, “High performance silver (I,III) oxide antimicrobial textile articles” (Marantech Holding, LLC, priority 2000, dated 2002)
